Values joined by “and” are separate entries in the source; they are usually repeats but may differ in a detail not shown here. Identical values can stand only once. Marks after values point to notes of the source that are not given here.
Columns and labels:
OATP1B1 = molecular target: T1, OATP1B1 (Homo sapiens, UniProt Q9Y6L6); assay: OATP1B1 inhibition, rosuvastatin uptake into transporter-expressing HEK293 cells; assay type: cell-based; conditions: for IC50: IC50 (95% CI), μM OATP1B1, 2.5 μM rosuvastatin, 2 min, 30 min preincubation; for Calculated R-value OATP1B1: R = 1 + (I in,max,u/IC50), FDA cut-off ≥ 1.1
T1 construct: expressed in transfected cells; host or cells: HEK293 (recombinant baculovirus-mediated transduction)
T1 sequence (Q9Y6L6 1-691): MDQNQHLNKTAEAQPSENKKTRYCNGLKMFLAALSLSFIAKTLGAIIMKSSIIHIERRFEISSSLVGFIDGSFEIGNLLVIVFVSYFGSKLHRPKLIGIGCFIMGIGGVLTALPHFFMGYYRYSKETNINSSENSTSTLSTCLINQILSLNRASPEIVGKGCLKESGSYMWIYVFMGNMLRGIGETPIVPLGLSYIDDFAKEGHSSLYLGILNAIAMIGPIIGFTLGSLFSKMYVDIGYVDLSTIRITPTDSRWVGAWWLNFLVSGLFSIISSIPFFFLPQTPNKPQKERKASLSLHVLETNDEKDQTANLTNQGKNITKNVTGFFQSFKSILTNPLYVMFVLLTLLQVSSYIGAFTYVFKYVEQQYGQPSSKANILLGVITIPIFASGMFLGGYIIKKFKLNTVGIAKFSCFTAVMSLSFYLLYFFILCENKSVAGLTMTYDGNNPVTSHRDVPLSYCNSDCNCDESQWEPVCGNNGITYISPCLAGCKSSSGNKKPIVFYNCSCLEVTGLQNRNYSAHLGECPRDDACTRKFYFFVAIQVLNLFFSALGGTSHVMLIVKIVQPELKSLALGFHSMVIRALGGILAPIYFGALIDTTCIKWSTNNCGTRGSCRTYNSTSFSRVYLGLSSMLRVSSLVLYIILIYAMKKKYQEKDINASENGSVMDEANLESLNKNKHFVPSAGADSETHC
Protocol: (§1) The human transporters OATP1B1, OATP1B3, OATP2B1, and OAT1‐OAT4 and a negative control protein (enhanced yellow fluorescent protein, eYFP) were transiently expressed in human embryonic kidney 293 (HEK293) cells by recombinant baculovirus‐mediated transduction. Baculoviruses carrying human genes for the transporters were prepared as reported previously. HEK293 cells were cultured in DMEM containing 10% fetal bovine serum at 37°C and 5% CO2 and passaged two to three times per week. For the transport studies, 0.05 × 10^6 cells for 48‐well plates (OATPs) or 0.06 × 10^6 cells for 24‐well plates (OATs) were seeded onto cell‐culture treated well plates coated with poly‐D‐lysine. After 1 day, cells were transduced to produce recombinant proteins by changing media to DMEM containing 30 μL (48‐well plates) or 60 μL (24‐well plates) of recombinant baculovirus and 3 mM (OATs) or 5 mM (OATPs) sodium butyrate in a total media volume of 500 μL. The cells were cultured for a further 2 days before the transport assays.
(§2) For the transport studies, media were removed and cells were washed once with warm transport uptake buffer (TP‐buffer—pH 7.4 HBSS with 25 mM HEPES and 4 mM sodium bicarbonate). Each experiment included triplicate (OATP) or duplicate (OAT) samples for every test condition. The uptake was started by removing liquid from wells and applying warm TP‐buffer (200 μL for 24‐well plates or 125 μL for 48‐well plates) containing a test compound to cells. Transport assays were terminated after a pre‐specified incubation time (reported in figure legends) by removing substrate solution and washing cells three times with cold TP‐buffer (300 μL for 48‐well plates and 400 μL for 24‐well plates). For the liquid chromatography mass spectrometry (LC–MS) analysis, compounds were extracted from cells with 125 μL (48‐well plates) or 250 μL (24‐well plates) of an ultrapure‐water solution containing 75% methanol and 0.1% formic acid, shaking at 250 RPM for 30 min. […] Samples were transferred to well plates, centrifuged at 3000 g for 30 min, and transferred to a new well plate for the analysis.
In the OATP inhibition assays, inhibitors in warm TP‐buffer were directly applied to cells after media removal, followed by a 30‐min preincubation step in the presence of inhibitors. […] OAT1 and OAT3 cells were lysed with 200 μL of 1 M sodium hydroxide for 10 min, and 150 μL of these samples were transferred to a black well plate for fluorescein quantification. […]
For the inhibition data analysis, the average of measured concentrations in the control cells was subtracted from the average of measured concentrations in transporter‐expressing cells for each inhibitor concentration and then normalized to the vehicle sample that represents 100% transport activity. […]

OAT3 = molecular target: T2, OAT3 (Homo sapiens, UniProt Q8TCC7); assay: Uptake transport assay in OAT3-expressing HEK293 cells; conditions: for transport by OAT3: 2 and 50 μM, 10 min; for Vmax (pmol/106 cells/min) OAT3: uptake, 2 min
T2 sequence (Q8TCC7 1-542): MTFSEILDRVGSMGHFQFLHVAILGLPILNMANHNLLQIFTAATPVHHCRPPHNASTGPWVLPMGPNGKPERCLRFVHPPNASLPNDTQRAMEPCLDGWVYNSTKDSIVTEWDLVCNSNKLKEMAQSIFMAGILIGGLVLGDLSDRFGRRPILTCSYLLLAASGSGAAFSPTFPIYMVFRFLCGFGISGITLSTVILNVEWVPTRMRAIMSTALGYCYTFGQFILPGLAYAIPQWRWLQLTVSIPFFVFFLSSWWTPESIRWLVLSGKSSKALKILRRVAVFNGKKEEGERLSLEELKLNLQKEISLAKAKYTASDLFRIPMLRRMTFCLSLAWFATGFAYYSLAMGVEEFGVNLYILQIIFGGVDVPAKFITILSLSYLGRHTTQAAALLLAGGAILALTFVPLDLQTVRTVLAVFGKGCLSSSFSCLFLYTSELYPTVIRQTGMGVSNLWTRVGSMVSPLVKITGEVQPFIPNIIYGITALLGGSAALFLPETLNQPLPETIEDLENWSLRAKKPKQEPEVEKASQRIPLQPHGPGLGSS
Protocol: as §1, §2
Equation (2) (the Michaelis–Menten equation) was fit to the transport kinetic assay data. […] (2) Uptake=Vmax×S/Km+S

| IC50 (OATP1B1) | Calculated R-value OATP1B1 (OATP1B1) | transport by OAT3 (OAT3) | Vmax (pmol/106 cells/min) OAT3 (OAT3) | Compound |
| --- | --- | --- | --- | --- |
| 31 µM | 1.5 ^a | transported | 277 pmol/106 cells/min | Cc1onc(-c2c(F)cccc2Cl)c1C(=O)N[C@@H]1C(=O)N2[C@@H]1SC(C)(C)[C@@H]2C(=O)O [Flucloxacillin] |
| 3.9 µM and 3.86 µM | 2.4 ^a | transported | 296 pmol/106 cells/min | Cc1onc(-c2c(Cl)cccc2Cl)c1C(=O)N[C@@H]1C(=O)N2[C@@H]1SC(C)(C)[C@@H]2C(=O)O [Dicloxacillin] |

— PMC12865225 (Clinical and Translational Science, 2026)
